{
  "source": "patent US9642821B2",
  "about": "“MiR-182 in the diagnosis and treatment of cancer” (Dana-Farber Cancer Institute, Inc., priority 2010, dated 2017)",
  "assay_type_in_all_cases": "cell-based",
  "key": {"[1]": {"system": "HL60 and K562 cells", "assay": "TPA differentiation of blood cells, miR-182 qRT-PCR", "details": "TPA-treated blood cells", "protocol": "(§1) HL60 cells (0.5×10^6 cells/ml) were differentiated either to neutrophils with 1.3% DMSO for 8 days or to macrophages with 16 nM tetradecanoyl phorbol acetate (TPA) for 3 days; K562 cells (0.5×10^6 cells/ml) to megakaryocytes with 16 nM phorbol myristate acetate (PMA) for 3 days or to erythrocytes with […] for 4 days. HL60 and K562 cells were grown in DMEM or RPMI-1640, respectively, supplemented with 10% (v/v) FBS. MCF-7 cells (10^6 cells/6 cm dish) were differentiated with 100 nM TPA for 3 days in Dulbecco's Modified Eagle Medium (DMEM) with 10% (v/v) fetal bovine serum (FBS) (Cunliffe et al., Cancer Res., 63:7158-66 (2003). The breast cancer lines and human mammary epithelial cells used in experiments shown in FIGS. 6 and 10, were cultured in media according to protocols from the American Type Culture Collection (ATCC®; Manassas, Va.) (www.atcc.org/).\nAnalysis of the miRNAs of the miR-183 cluster was conducted using qPCR using the TaqMan MicroRNA Assay from Applied Biosystems as per the manufacturer's instructions and normalized to RNU6B snRNA. Analysis of mRNA expression was carried out with qPCR using the SYBR Green master mix (Applied Biosystems, Foster City, Calif.) according to the manufacture's manual and the BioRad iCycler. […]"}, "[2]": {"system": "MCF7 cells", "assay": "TPA treatment of MCF7 cells, cell cycle analysis", "details": "breast cancer lines (MCF7), 100 nM TPA", "protocol": "as §1\nMCF-7 cells were differentiated with 100 nM TPA. At day 0, 1, 2, and 3 cells were collected, fixed with 70% cold ethanol and stored at −20° C. Permeabilized cells were centrifuged, washed once with PBS, and incubated for 30 minutes in propidium iodide (PI)/RNase Staining Buffer (BD Pharmingen, San Diego, Calif.) at 25° C. before flow cytometric analysis."}, "[3]": {"system": "PARP", "assay": "PARP activity assay (universal PARP chemiluminescent kit) in MDA-MB231 cells", "details": "MDA-MB231, increasing concentrations, 100 μM H2O2", "protocol": "MDA-MB231 cells (2×10^6) were plated in 10-cm tissue culture dishes overnight in duplicates. The cells were exposed to the indicated concentrations of 4-Amino-1,8-naphthalimide in phosphate buffered saline (PBS) for 10 minutes on ice followed by 100 μM H2O2 for 20 minutes on ice. The cells were then washed thrice in ice cold PBS for 8-10 minutes and incubated in complete medium with the indicated concentrations of 4-Amino-1,8-naphthalimide at 37° C. The cells were then lysed and PARP activity was measured using the universal PARP chemiluminescent assay kit (Trevigen, Gaithersburg, Md.) as per the manufacturer's instructions."}, "[4]": {"system": "BRCA1 transcript", "assay": "Immunoprecipitation of HA-AGO1/miRNA complex, qRT-PCR of bound transcripts, MDA-MB231", "details": "MDA-MB231, HA-AGO1 IP, normalized to 5S rRNA", "protocol": "miR-182 cDNA and miR-17 cDNA was cloned from HL60 cDNA in pcDNA3.1-Puro expression vector (Invitrogen, Carlsbad, Calif.) using the following primers: […]\nMDA-MB231 cells (0.5×10^6 cells) were co-transfected with 1 μg of HA-AGO1 (pIRES-FLAG/HA vector, Addgene) and 0.5 μg of expression vector for miR-182/miR-17 or miR-scr using Lipofectamine 2000. After 2 days cells were harvested using 400 μl lysis buffer (100 mM KCl, 5 mM MgCl2, 10 mM Hepes, pH 7.0, 0.5% Nonidet P-40) containing freshly added RNase inhibitor, RNaseOUT (Invitrogen, Carlsbad, Calif.) and Protease Inhibitor Cocktail (Roche, Basel, Switzerland). After centrifugation, a 50 μl aliquot of supernatant was taken as the input for subsequent RNA extraction. The remaining supernatant was gently shaken with HA-beads (HA-probe Santa Cruz sc-7392) for 4 h at 4° C. in spin columns (Pierce Spin Columns-Screw Cap). The columns were drained, washed and the retained beads were treated with 5 U DNaseI in NT2 buffer (50 mM Tris, pH7.4, 150 mM NaCl, 1 mM MgCl2, 0.05% Nonidet P-40) for 10 minutes at 37° C., washed with NT2 buffer and then treated with Proteinase K in NT2 buffer plus 1% SDS for 30 minutes at 55° C. […] RNA was reverse transcribed (see RNA isolation) and analyzed with qPCR for enrichment of mRNA of miR-182/miR-17 predicted targets."}, "[5]": {"system": "BRCA1", "assay": "BRCA1 expression after ectopic miRNA overexpression in HL60 cells (immunoblot, qPCR)", "details": "HL60 cells transiently transfected with expression vectors, Western blot", "protocol": "Analysis of the miRNAs of the miR-183 cluster was conducted using qPCR using the TaqMan MicroRNA Assay from Applied Biosystems as per the manufacturer's instructions and normalized to RNU6B snRNA. Analysis of mRNA expression was carried out with qPCR using the SYBR Green master mix (Applied Biosystems, Foster City, Calif.) according to the manufacture's manual and the BioRad iCycler. The mRNA (1 μg) was reverse transcribed with 50 ng random primers using 100 U moloney murine leukemia virus (MMLV) reverse transcriptase (Epicentre, Madison, Wis.) according to the manufacturer's manual. Results were normalized to 5SrRNA or GAPDH.\nIn each experiment, where Western blot analysis was done, a fraction of 0.2−0.5×10^6 cells was taken out at day, 3 or 4, post-transfection. Breast cancer cell lines were collected from 6 well tissue culture plates (0.5-1×10^6 cells). Cells lysates were prepared in RIPA buffer (150 mM NaCl, 1% NP-40, 0.5% sodium deoxycholate, 0.1% SDS, 50 mM Tris, pH 8.0). Lysates of 0.1×10^6 cells of each sample plus loading buffer were loaded on 8% SDS-PAGE gels, semi-dry transferred on nitrocellulose membrane, and probed with anti-BRCA1 antibody at a 1:500 dilution (CALBIOCHEM, MS110) and anti-tubulin antibody at a 1:10,000 dilution (Sigma, Clone B-5-1-2)."}},
  "data": [
    {"molecule": "12-O-tetradecanoylphorbol-13-acetate [TPA]", "values": [
      {"measurement": "miR-182 expression", "setting": "[1]", "result": "induces expression of miR-182"},
      {"measurement": "cell cycle state", "setting": "[2]", "result": "leads to a post-mitotic state"}
    ]},
    {"molecule": "Nc1ccc2c3c(cccc13)C(=O)NC2=O", "note": "[ANI, 4-Amino-1,8-naphthalimide]", "values": [
      {"measurement": "PARP activity", "setting": "[3]", "result": "PARP inhibition was confirmed"},
      {"measurement": "PARP activity", "setting": "[3]; listed as 4-Amino-1,8-naphthalimide", "result": "inhibits PARP activity"}
    ]},
    {"molecule": "miR-17: another miRNA predicted to target BRCA1; expression vector [reference compound]", "values": [
      {"measurement": "association of miRNA/AGO1 complex with BRCA1 transcript", "setting": "[4]", "result": "did not associate"}
    ]},
    {"molecule": "miR-183: miRNA of cluster-183, co-expressed with miR-182; expression vector (GUAUGGCACUGGUAGAAUUCACUGU; listed as Homo sapiens) [reference compound]", "values": [
      {"measurement": "BRCA1 protein level", "setting": "[5]", "result": "did not affect"}
    ]}
  ]
}
